Source: patent US10696615B2, “Prenylated hydroxystilbenes” (The University of Sydney, priority 2011, dated 2020)

Key:
[1] = tested on: MOLT-4; assay: NCI in vitro cancer screen, Leukemia; format: cell-based, human; conditions: MOLT-4
[2] = tested on: SR; assay: NCI in vitro cancer screen, Leukemia; format: cell-based, human
[3] = tested on: HOP-92; assay: NCI in vitro cancer screen, Non-Small Cell Lung Cancer; format: cell-based, human; conditions: HOP-92
[4] = tested on: NCI-H226; assay: as above; format: cell-based, human; conditions: NCI-H226
[5] = tested on: NCI-H23; assay: as above; format: cell-based, human; conditions: NCI-H23
[6] = tested on: NCI-H460; assay: as above; format: cell-based, human; conditions: NCI-H460
[7] = tested on: NCI-H522; assay: as above; format: cell-based, human; conditions: NCI-H522
[8] = tested on: KM12; assay: NCI in vitro cancer screen, Colon Cancer; format: cell-based, human; conditions: KM12
[9] = tested on: SW-620; assay: NCI in vitro cancer screen, Colon Cancer; format: cell-based, human; conditions: SW-620
[10] = tested on: SF-295; assay: NCI in vitro cancer screen, CNS Cancer; format: cell-based, human; conditions: SF-295
[11] = tested on: SF-539; assay: NCI in vitro cancer screen, CNS Cancer; format: cell-based; conditions: SF-539
[12] = tested on: SNB-19; assay: NCI in vitro cancer screen, CNS Cancer; format: cell-based, human; conditions: SNB-19
[13] = tested on: U251; assay: NCI in vitro cancer screen, CNS Cancer; format: cell-based, human; conditions: U251
[14] = tested on: LOX IMVI; assay: NCI in vitro cancer screen, Melanoma; format: cell-based, human
[15] = tested on: MALME-3M; assay: NCI in vitro cancer screen, Melanoma; format: cell-based, human
[16] = tested on: MDA-MB-435; assay: NCI in vitro cancer screen, Melanoma; format: cell-based, human; conditions: MDA-MB-435
[17] = tested on: SK-MEL-28; assay: NCI in vitro cancer screen, Melanoma; format: cell-based, human; conditions: SK-MEL-28
[18] = tested on: UACC-257; assay: NCI in vitro cancer screen, Melanoma; format: cell-based, human; conditions: UACC-257
[19] = tested on: IGROV1; assay: NCI in vitro cancer screen, Ovarian Cancer; format: cell-based, human; conditions: IGROV1
[20] = tested on: A498; assay: NCI in vitro cancer screen, Renal Cancer; format: cell-based, human; conditions: A498
[21] = tested on: CAKI-1; assay: NCI in vitro cancer screen, Renal Cancer; format: cell-based, human; conditions: CAKI-1
[22] = tested on: SN12C; assay: NCI in vitro cancer screen, Renal Cancer; format: cell-based, human
[23] = tested on: TK-10; assay: NCI in vitro cancer screen, Renal Cancer; format: cell-based, human; conditions: TK-10
[24] = tested on: UO-31; assay: NCI in vitro cancer screen, Renal Cancer; format: cell-based, human; conditions: UO-31
[25] = tested on: PC-3; assay: NCI in vitro cancer screen, Prostate Cancer; format: cell-based, human; conditions: PC-3
[26] = tested on: MCF7; assay: NCI in vitro cancer screen, Breast Cancer; format: cell-based, human; conditions: MCF7
[27] = tested on: MDA-MB-231 (MDA-MB-231/ATCC); assay: NCI in vitro cancer screen, Breast Cancer; format: cell-based, human; conditions: MDA-MB-231
[28] = tested on: MDA-MB-468; assay: NCI in vitro cancer screen, Breast Cancer; format: cell-based, human; conditions: MDA-MB-468
[29] = Homo sapiens, read-out: LC50 (the source's name)

Structure (SMILES): COc1cc(/C=C/c2cc(O)c(CC=C(C)C)c(O)c2)ccc1O [USYDS13, (E)-4-(3-methyl-2-buten-1-yl)-3,4′,5-trihydroxy-3′-methoxystilbene]
- GI50 ([1]; Homo sapiens): 2950 nM
- CC50 [1, 29]: > 100 µM
- TGI [1]: 13.7 µM
- TGI [2]: >100 µM
- GI50 ([2]; Homo sapiens): 2800 nM
- CC50 [2, 29]: > 100 µM
- TGI [3]: 30.5 µM
- GI50 ([3]; Homo sapiens): 5.96 µM
- CC50 [3, 29]: > 100 µM
- GI50 ([4]; Homo sapiens): 10.9 µM
- LC50 (50% lethal concentration) ([4]; Homo sapiens): > 100 µM
- TGI [4]: 50.1 µM
- GI50 ([5]; Homo sapiens): 5.66 µM
- LC50 ([5]; Homo sapiens): > 100 µM
- TGI [5]: 28.0 µM
- GI50 ([6]; Homo sapiens): 3.09 µM
- CC50 [6, 29]: > 100 µM
- TGI [6]: 15.6 µM
- GI50 ([7]; Homo sapiens): 2130 nM
- CC50 [7, 29]: 25.6 µM
- TGI [7]: 59.8 µM
- GI50 ([8]; Homo sapiens): 3.15 µM
- CC50 [8, 29]: 49 µM
- TGI [8]: 16.1 µM
- GI50 ([9]; Homo sapiens): 3.98 µM
- CC50 [9, 29]: 42.8 µM
- TGI [9]: 15.9 µM
- GI50 ([10]; Homo sapiens): 5.22 µM
- CC50 [10, 29]: 77.5 µM
- TGI [10]: 23.5 µM
- GI50 ([11]; Homo sapiens): 7.32 µM
- CC50 [11, 29]: > 100 µM
- TGI [11]: 29.9 µM
- GI50 ([12]; Homo sapiens): 8.02 µM
- CC50 [12, 29]: 64.5 µM
- TGI [12]: 24.2 µM
- GI50 ([13]; Homo sapiens, U-251): 5.47 µM
- CC50 ([13]; Homo sapiens, U-251, read-out: LC50 (the source's name)): 57.6 µM
- TGI [13]: 20.7 µM
- TGI [14]: 20.2 µM
- GI50 ([14]; Homo sapiens): 4.48 µM
- CC50 [14, 29]: 80 µM
- GI50 ([15]; Homo sapiens, Malme-3M): 5.53 µM
- CC50 ([15]; Homo sapiens, Malme-3M, read-out: LC50 (the source's name)): > 100 µM
- TGI ([15]; MALME-3M): 32.1 µM
- GI50 ([16]; Homo sapiens): 3.08 µM
- CC50 [16, 29]: > 100 µM
- TGI [16]: 15.9 µM
- GI50 ([17]; Homo sapiens): 5.64 µM
- LC50 ([17]; Homo sapiens): 70.5 µM
- TGI [17]: 22.5 µM
- GI50 ([18]; Homo sapiens): 5.35 µM
- CC50 [18, 29]: 44 µM
- TGI [18]: 18.1 µM
- GI50 ([19]; Homo sapiens, IGROV-1): 6.7 µM
- CC50 ([19]; Homo sapiens, IGROV-1, read-out: LC50 (the source's name)): > 100 µM
- TGI [19]: 86.2 µM
- TGI [20]: 21.0 µM
- GI50 ([20]; Homo sapiens): 3.88 µM
- CC50 [20, 29]: 63.5 µM
- TGI [21]: >100 µM
- GI50 ([21]; Homo sapiens): 5.9 µM
- CC50 [21, 29]: > 100 µM
- TGI [22]: >100 µM
- GI50 ([22]; Homo sapiens): 7.16 µM
- CC50 [22, 29]: > 100 µM
- GI50 ([23]; Homo sapiens): 6.98 µM
- LC50 ([23]; Homo sapiens): > 100 µM
- TGI [23]: 31.4 µM
- GI50 ([24]; Homo sapiens): 4.16 µM
- CC50 [24, 29]: > 100 µM
- TGI [24]: 38.1 µM
- GI50 ([25]; Homo sapiens): 6.36 µM
- CC50 [25, 29]: > 100 µM
- TGI [25]: >100 µM
- GI50 ([26]; Homo sapiens): 680 nM
- CC50 [26, 29]: 82.7 µM
- TGI [26]: 19.9 µM
- GI50 ([27]; Homo sapiens): 1630 nM
- CC50 [27, 29]: > 100 µM
- TGI [27]: 7.82 µM
- GI50 ([28]; Homo sapiens): 1680 nM
- CC50 [28, 29]: > 100 µM
- TGI [28]: 7.63 µM
